This is an account of results in patent US10392373B2, “Oxazole derivatives that inhibit Syk” (AB Science, priority 2015, dated 2019).

The test concerns the target T1, SYK kinase (Homo sapiens, UniProt P43405).
T1 construct: SYK kinase was purified as a full length protein in a baculovirus system near homogeneity; made in house
Briefly: In vitro Syk inhibition assay (Kinase TK HTRF, Cisbio). It is filed as biochemical. Particulars: full length SYK purified from a baculovirus system; ATP at least twice the Km; room temperature; average of triplicate; read-out: IC50: Concentration inhibiting 50% of protein kinase. Here is the method:
Protocol Inhibition Assays.
SYK kinase was purified as a full length protein in a baculovirus system near homogeneity. All kinase assays were performed with the Kinase TK (tyrosine kinase) HTRF (Homogeneous Time Resolved Fluorescence) assay developed by Cisbio international. These assays were carried out at room temperature in 96-wells half-area white plates in a final volume of 25 μl of kinase buffer (10 mM MgCl2; 2 mM MnCl2; 50 mM Sodium-HEPES pH 7.8; BRIJ-35 0.01%, 1 μM substrate) containing ATP at a concentration of at least twice the Km for each enzyme and an appropriate amount of recombinant enzyme to ensure a linear reaction rate. Reactions were initiated upon introduction of the enzyme and terminated with the addition of one reaction volume (25 μl) of HTRF detection buffer. Plates were incubated for one hour at room temperature and the time resolved Fluorescence resonance energy transfer signal was measured in a Pherastar FS microplate reader (BMG Labtech). All data are the average of triplicate results with a standard deviation <10%.
A general note: Time-resolved FRET reads energy transfer from a long-lived donor to a nearby acceptor.

In the case of `Cc1ccnc(Nc2cc(CN3CCOCC3)cc(-c3cnc(N4CCNC(=O)C4(C)C)o3)c2)n1` [Compound 005, 3,3-Dimethyl-4-{5-[3-(4-methyl-pyrimidin-2-ylamino)-5-morpholin-4-ylmethyl-phenyl]-oxazol-2-yl}-piperazin-2-one], the IC50 was at most 100 nM.
As to `CC1C(=O)NCCN1c1ncc(-c2cccc(Nc3nccc(C#N)n3)c2)o1` (stereo not drawn) [Compound 017, 2-{3-[2-(2-Methyl-3-oxo-piperazin-1-yl)-oxazol-5-yl]-phenylamino}-pyrimidine-4-carbonitrile], the IC50 is at most 100 nM.
On to `CCc1ccnc(Nc2cccc(-c3cnc(N4CCNC(=O)C4C)o3)c2)n1` (stereo not drawn) [Compound 004, 4-{5-[3-(4-Ethyl-pyrimidin-2-ylamino)-phenyl]-oxazol-2-yl}-3-methyl-piperazin-2-one], for which the IC50 is at most 100 nM.
The same measure for `CC(C)C1C(=O)NCCN1c1ncc(-c2cccc(Nc3nccc(C(F)(F)F)n3)c2)o1` (stereo not drawn) [Compound 012, 3-Isopropyl-4-{5-[3-((4-trifluoromethyl)-pyrimidin-2-ylamino)-phenyl]-oxazol-2-yl}-piperazin-2-one]: at most 100 nM.
The same measure for `CC1(C)C(=O)NCCN1c1ncc(-c2cccc(Nc3nccc(C(F)(F)F)n3)c2)o1` [Compound 018, 3,3-Dimethyl-4-{5-[3-((4-trifluoromethyl)-pyrimidin-2-ylamino)-phenyl]-oxazol-2-yl}-piperazin-2-one]: at most 100 nM; for `CCC1C(=O)NCCN1c1ncc(-c2cccc(Nc3nccc(C)n3)c2)o1` (stereo not drawn) [Compound 020, 3-Ethyl-4-{5-[3-(4-methyl-pyrimidin-2-ylamino)-phenyl]-oxazol-2-yl}-piperazin-2-one]: at most 100 nM.
As for `Cc1ccnc(Nc2cccc(-c3cnc(N4CCNC(=O)[C@@H]4C)o3)c2)n1` [Compound 019, (S)-3-Methyl-4-{5-[3-(4-methyl-pyrimidin-2-ylamino)-phenyl]-oxazol-2-yl}-piperazin-2-one], the figure is at most 100 nM; as for `CC1C(=O)NCCN1c1ncc(-c2cccc(Nc3nccc(N4CCOCC4)n3)c2)o1` (stereo not drawn) [Compound 027, 3-Methyl-4-{5-[3-(4-morpholin-4-yl-pyrimidin-2-ylamino)-phenyl]-oxazol-2-yl}-piperazin-2-one], 100 to 1000 nM; as for `CC1C(=O)NCCN1c1ncc(-c2cc(CN3CCOCC3)cc(Nc3nccc(C#N)n3)c2)o1` (stereo not drawn) [Compound 008, 2-{3-[2-(2-Methyl-3-oxo-piperazin-1-yl)-oxazol-5-yl]-5-(morpholin-4-ylmethyl)-phenylamino}-pyrimidine-4-carbonitrile], at most 100 nM.
With `Cc1ccnc(Nc2cccc(-c3cnc(N4CCNC(=O)[C@H]4C(C)C)o3)c2)n1` [Compound 040, (R)-3-Isopropyl-4-{5-[3-(4-methyl-pyrimidin-2-ylamino)-phenyl]-oxazol-2-yl}-piperazin-2-one], the IC50 is at most 100 nM.
As to `Cc1cnc(Nc2cccc(-c3cnc(N4CCNC(=O)C4(C)C)o3)c2)nc1C` [Compound 022, 4-{5-[3-(4,5-Dimethyl-pyrimidin-2-ylamino)-phenyl]-oxazol-2-yl}-3,3-dimethyl-piperazin-2-one], the IC50 was in the range of 1000 to 10000 nM.
The same measure for `CC(C)C1C(=O)NCCN1c1ncc(-c2cccc(Nc3nccc(N4CCCC4)n3)c2)o1` (stereo not drawn) [Compound 034, 3-Isopropyl-4-{5-[3-(4-pyrrolidin-1-yl-pyrimidin-2-ylamino)-phenyl]-oxazol-2-yl}-piperazin-2-one]: 1000 to 10000 nM.
